{"source": "the supplement of paper PMC6045584", "note": "± gives the standard deviation of the averaged measurements."}
{"compound": "COc1cc2ncnc(Nc3ccc(F)c(Cl)c3)c2cc1OCCCN1CCOCC1 [GEFITINIB]", "experiment": "surviving fraction relative to DMSO-only wells; higher = less growth inhibition", "settings": "50 nM; exposure time: 5 days", "in_short": "(§1)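 Inhibitors were tested at 0.5, 1, 5, 10, 50, 100, 500 and 1000 nM, applied continuously for five days beginning 24 hours after log-phase tumour cells were seeded at 250–500 per well in 384-well plates. CellTiter-Glo luminescence served as the viability measure, expressed as surviving fraction against the median of DMSO-only wells. Each line, screened three times, was kept only with replicate Pearson r >0.7 and median Z' >0.3.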"}
{"test system": "CADOES1 SOFT TISSUE", "surviving fraction": "0.824 ± 0.12"}
{"test system": "SAOS2 BONE", "surviving fraction": "1.12 ± 0.061"}
{"test system": "MDAMB436 BREAST", "surviving fraction": "0.993 ± 0.12"}
{"test system": "93VU HEADNECK", "surviving fraction": "0.878 ± 0.044"}
{"test system": "KPD BONE", "surviving fraction": "1.06 ± 0.1"}
{"test system": "SYO1 SYNOVIAL", "surviving fraction": "0.984 ± 0.017"}
{"test system": "BT20 BREAST", "surviving fraction": "1.06 ± 0.011"}
{"test system": "SUM44 BREAST", "surviving fraction": "1.45 ± 0.42"}
{"test system": "CAL120 BREAST", "surviving fraction": "1.016 ± 0.0095"}
{"test system": "CHLA90 AUTONOMIC GANGLIA", "surviving fraction": "0.902 ± 0.069"}
{"test system": "HCC1806 BREAST", "surviving fraction": "1.04 ± 0.14"}
{"test system": "HCC78 LUNG", "surviving fraction": "0.967 ± 0.12"}
{"test system": "MFM223 BREAST", "surviving fraction": "1.19 ± 0.058"}
{"test system": "SG43 HEADNECK", "surviving fraction": "0.649 ± 0.17"}
{"test system": "HOS BONE", "surviving fraction": "1.06 ± 0.033"}
{"test system": "MDAMB468 BREAST", "surviving fraction": "1.07 ± 0.099"}
{"test system": "SG27 HEADNECK", "surviving fraction": "1.14 ± 0.13"}
{"test system": "ZR751 BREAST", "surviving fraction": "0.901 ± 0.071"}
{"test system": "HSSYII SYNOVIAL", "surviving fraction": "1.03 ± 0.017"}
{"test system": "MG63 BONE", "surviving fraction": "1.11 ± 0.046"}
{"test system": "HS57T BREAST", "surviving fraction": "1.05 ± 0.059"}
{"test system": "SUM159 BREAST", "surviving fraction": "1.08 ± 0.014"}
{"test system": "HCC1395 BREAST", "surviving fraction": "1.24 ± 0.059"}
{"test system": "SUM149.B1*.S BREAST", "surviving fraction": "1.1 ± 0.026"}
{"test system": "MDAMB453 BREAST", "surviving fraction": "1.14 ± 0.053"}
{"test system": "SCC90 HEADNECK", "surviving fraction": "0.804 ± 0.019"}
{"test system": "HMLE3 BREAST", "surviving fraction": "1.04 ± 0.051"}
{"test system": "HCC70 BREAST", "surviving fraction": "1.03 ± 0.042"}
{"test system": "LNCAP PROSTATE", "surviving fraction": "0.939 ± 0.032"}
{"test system": "HCT15 LARGE INTESTINE", "surviving fraction": "1.07 ± 0.04"}
{"test system": "MHM BONE", "surviving fraction": "1.03 ± 0.012"}
{"test system": "VCAP PROSTATE", "surviving fraction": "1.19 ± 0.083"}
{"compound": "COc1cc2ncnc(Nc3ccc(F)c(Cl)c3)c2cc1OCCCN1CCOCC1 [GEFITINIB]", "experiment": "surviving fraction relative to DMSO-only wells; higher = less growth inhibition", "settings": "100 nM; exposure time: 5 days", "in_short": "as §1"}
{"test system": "CADOES1 SOFT TISSUE", "surviving fraction": "0.942 ± 0.11"}
{"test system": "SAOS2 BONE", "surviving fraction": "1.13 ± 0.06"}
{"test system": "MDAMB436 BREAST", "surviving fraction": "1.03 ± 0.084"}
{"test system": "93VU HEADNECK", "surviving fraction": "0.751 ± 0.034"}
{"test system": "KPD BONE", "surviving fraction": "1.04 ± 0.076"}
{"test system": "SYO1 SYNOVIAL", "surviving fraction": "0.898 ± 0.024"}
{"test system": "BT20 BREAST", "surviving fraction": "1.06 ± 0.013"}
{"test system": "SUM44 BREAST", "surviving fraction": "1.33 ± 0.32"}
{"test system": "CAL120 BREAST", "surviving fraction": "0.985 ± 0.031"}
{"test system": "CHLA90 AUTONOMIC GANGLIA", "surviving fraction": "0.876 ± 0.041"}
{"test system": "HCC1806 BREAST", "surviving fraction": "0.925 ± 0.098"}
{"test system": "HCC78 LUNG", "surviving fraction": "0.963 ± 0.067"}
{"test system": "MFM223 BREAST", "surviving fraction": "1.19 ± 0.092"}
{"test system": "SG43 HEADNECK", "surviving fraction": "0.406 ± 0.034"}
{"test system": "HOS BONE", "surviving fraction": "1.07 ± 0.031"}
{"test system": "MDAMB468 BREAST", "surviving fraction": "1.028 ± 0.01"}
{"test system": "SG27 HEADNECK", "surviving fraction": "1.12 ± 0.13"}
{"test system": "ZR751 BREAST", "surviving fraction": "0.994 ± 0.035"}
{"test system": "HSSYII SYNOVIAL", "surviving fraction": "1.03 ± 0.067"}
{"test system": "MG63 BONE", "surviving fraction": "1.08 ± 0.027"}
{"test system": "HS57T BREAST", "surviving fraction": "1.02 ± 0.061"}
{"test system": "SUM159 BREAST", "surviving fraction": "1.04 ± 0.031"}
{"test system": "HCC1395 BREAST", "surviving fraction": "1.21 ± 0.045"}
{"test system": "SUM149.B1*.S BREAST", "surviving fraction": "1.1 ± 0.06"}
{"test system": "MDAMB453 BREAST", "surviving fraction": "1.13 ± 0.087"}
{"test system": "SCC90 HEADNECK", "surviving fraction": "0.651 ± 0.057"}
{"test system": "HMLE3 BREAST", "surviving fraction": "0.963 ± 0.07"}
{"test system": "HCC70 BREAST", "surviving fraction": "1.01 ± 0.088"}
{"test system": "LNCAP PROSTATE", "surviving fraction": "0.947 ± 0.03"}
{"test system": "HCT15 LARGE INTESTINE", "surviving fraction": "1.046 ± 0.0061"}
{"test system": "MHM BONE", "surviving fraction": "1.026 ± 0.01"}
{"test system": "VCAP PROSTATE", "surviving fraction": "1.08 ± 0.056"}
{"compound": "COc1cc2ncnc(Nc3ccc(F)c(Cl)c3)c2cc1OCCCN1CCOCC1 [GEFITINIB]", "experiment": "surviving fraction relative to DMSO-only wells; higher = less growth inhibition", "settings": "500 nM; exposure time: 5 days", "in_short": "as §1"}
{"test system": "CADOES1 SOFT TISSUE", "surviving fraction": "0.953 ± 0.12"}
{"test system": "SAOS2 BONE", "surviving fraction": "1.01 ± 0.038"}
{"test system": "MDAMB436 BREAST", "surviving fraction": "1.08 ± 0.098"}
{"test system": "93VU HEADNECK", "surviving fraction": "0.449 ± 0.044"}
{"test system": "KPD BONE", "surviving fraction": "0.952 ± 0.04"}
{"test system": "SYO1 SYNOVIAL", "surviving fraction": "1 ± 0.021"}
{"test system": "BT20 BREAST", "surviving fraction": "1.05 ± 0.04"}
{"test system": "SUM44 BREAST", "surviving fraction": "1.33 ± 0.49"}
{"test system": "CAL120 BREAST", "surviving fraction": "0.995 ± 0.035"}
{"test system": "CHLA90 AUTONOMIC GANGLIA", "surviving fraction": "0.881 ± 0.044"}
{"test system": "HCC1806 BREAST", "surviving fraction": "0.62 ± 0.069"}
{"test system": "HCC78 LUNG", "surviving fraction": "0.711 ± 0.23"}
{"test system": "MFM223 BREAST", "surviving fraction": "1.12 ± 0.035"}
{"test system": "SG43 HEADNECK", "surviving fraction": "0.264 ± 0.033"}
{"test system": "HOS BONE", "surviving fraction": "1.01 ± 0.021"}
{"test system": "MDAMB468 BREAST", "surviving fraction": "0.588 ± 0.026"}
{"test system": "SG27 HEADNECK", "surviving fraction": "1.09 ± 0.024"}
{"test system": "ZR751 BREAST", "surviving fraction": "0.734 ± 0.034"}
{"test system": "HSSYII SYNOVIAL", "surviving fraction": "0.995 ± 0.051"}
{"test system": "MG63 BONE", "surviving fraction": "0.999 ± 0.033"}
{"test system": "HS57T BREAST", "surviving fraction": "1.01 ± 0.065"}
{"test system": "SUM159 BREAST", "surviving fraction": "1.03 ± 0.036"}
{"test system": "HCC1395 BREAST", "surviving fraction": "1.2 ± 0.085"}
{"test system": "SUM149.B1*.S BREAST", "surviving fraction": "1.03 ± 0.034"}
{"test system": "MDAMB453 BREAST", "surviving fraction": "1.06 ± 0.05"}
{"test system": "SCC90 HEADNECK", "surviving fraction": "0.474 ± 0.044"}
{"test system": "HMLE3 BREAST", "surviving fraction": "0.904 ± 0.1"}
{"test system": "HCC70 BREAST", "surviving fraction": "0.815 ± 0.048"}
{"test system": "LNCAP PROSTATE", "surviving fraction": "1.03 ± 0.08"}
{"test system": "HCT15 LARGE INTESTINE", "surviving fraction": "1.04 ± 0.039"}
{"test system": "MHM BONE", "surviving fraction": "0.9993 ± 0.0096"}
{"test system": "VCAP PROSTATE", "surviving fraction": "1.21 ± 0.16"}
{"compound": "COc1cc2ncnc(Nc3ccc(F)c(Cl)c3)c2cc1OCCCN1CCOCC1 [GEFITINIB]", "experiment": "surviving fraction relative to DMSO-only wells; higher = less growth inhibition", "settings": "1000 nM; exposure time: 5 days", "in_short": "as §1"}
{"test system": "CADOES1 SOFT TISSUE", "surviving fraction": "0.995 ± 0.16"}
{"test system": "SAOS2 BONE", "surviving fraction": "0.907 ± 0.08"}
{"test system": "MDAMB436 BREAST", "surviving fraction": "1.08 ± 0.1"}
{"test system": "93VU HEADNECK", "surviving fraction": "0.383 ± 0.062"}
{"test system": "KPD BONE", "surviving fraction": "0.934 ± 0.029"}
{"test system": "SYO1 SYNOVIAL", "surviving fraction": "0.935 ± 0.024"}
{"test system": "BT20 BREAST", "surviving fraction": "0.984 ± 0.085"}
{"test system": "SUM44 BREAST", "surviving fraction": "1.14 ± 0.22"}
{"test system": "CAL120 BREAST", "surviving fraction": "0.93 ± 0.042"}
{"test system": "CHLA90 AUTONOMIC GANGLIA", "surviving fraction": "0.801 ± 0.066"}
{"test system": "HCC1806 BREAST", "surviving fraction": "0.61 ± 0.01"}
{"test system": "HCC78 LUNG", "surviving fraction": "0.668 ± 0.19"}
{"test system": "MFM223 BREAST", "surviving fraction": "1.14 ± 0.07"}
{"test system": "SG43 HEADNECK", "surviving fraction": "0.21 ± 0.043"}
{"test system": "HOS BONE", "surviving fraction": "0.973 ± 0.013"}
{"test system": "MDAMB468 BREAST", "surviving fraction": "0.503 ± 0.058"}
{"test system": "SG27 HEADNECK", "surviving fraction": "1.11 ± 0.016"}
{"test system": "ZR751 BREAST", "surviving fraction": "0.802 ± 0.12"}
{"test system": "HSSYII SYNOVIAL", "surviving fraction": "0.98 ± 0.065"}
{"test system": "MG63 BONE", "surviving fraction": "1.01 ± 0.033"}
{"test system": "HS57T BREAST", "surviving fraction": "0.9383 ± 0.0032"}
{"test system": "SUM159 BREAST", "surviving fraction": "1.036 ± 0.0092"}
{"test system": "HCC1395 BREAST", "surviving fraction": "1.11 ± 0.039"}
{"test system": "SUM149.B1*.S BREAST", "surviving fraction": "0.98 ± 0.032"}
{"test system": "MDAMB453 BREAST", "surviving fraction": "1.04 ± 0.039"}
{"test system": "SCC90 HEADNECK", "surviving fraction": "0.465 ± 0.054"}
{"test system": "HMLE3 BREAST", "surviving fraction": "0.843 ± 0.083"}
{"test system": "HCC70 BREAST", "surviving fraction": "0.848 ± 0.068"}
{"test system": "LNCAP PROSTATE", "surviving fraction": "0.947 ± 0.12"}
{"test system": "HCT15 LARGE INTESTINE", "surviving fraction": "1.07 ± 0.052"}
{"test system": "MHM BONE", "surviving fraction": "0.972 ± 0.013"}
{"test system": "VCAP PROSTATE", "surviving fraction": "1.07 ± 0.076"}
